Patent publication US9249115B2, “N,N1 substituted piperazines having combined antiaggregant, anticoagulant and vasodilatory activity, and method for producing same” (Vertex Closed Joint Stock Company, priority 2011, dated 2016)

Legend:
[1] = system: thrombocyte depleted plasm coagulation; test: Activated partial thromboplastin time (APTT), anticoagulant properties; type: biochemical, human; settings: for APTT: thrombocyte depleted plasm
Description: (§1) The study of antiaggregant and anticoagulant properties of N,N′-substituted piperazines on the sample of donor human blood. The blood was collected by donor ulnar vein punction with dry sharp needle without syringe. The administration of drugs that influence on thrombocyte function was cancelled in 7÷10 days before the experiment.
(§2) In graduated plastic centrifuge tube 1 ml of 3.8% basic trisodium citrate solution with pH=7.4 was placed. The ulnar vein was punctuated, the freely effluent blood was collected up to 10 ml mark, the mixture was instantly stirred to prevent air bubbles appearance. The collected and stabilized blood was split in two 5 ml portions in two tubes.
(§3) To obtain thrombocyte enriched plasm the stabilized blood was spinned at 1000 rpm (150 g) for 8 min at room temperature. The repeated spinning of the blood at 3200 rpm (2300 g) for 20 min at 22° C. yielded thrombocyte depleted plasm.
To study anticoagulant properties of N,N′-substituted piperazines activated partial thromboplastin time (APTT) was measured. That is the ability of N,N′-substituted piperazines to increase thrombocyte depleted plasm coagulation time compared to the ability of control sample. The set of reagents for APTT determination (Russian Scientific Research Institute of Hematology and Transfusiology Ministry of Health of Russian Federation by Technical Regulation 9398-214-01966456-99) and COAG-A-MATE® XM coagulometer (ORGANON TEKNIKA, USA) were used.
The solutions of N,N′-substituted piperazines were mixed with thrombocyte depleted plasm at 1:1 ratio, then 0.1 ml of APTT reagent was added, the mixture was incubated in the cuvette for 5 min at 37° C., then 0.1 ml of 0.277% CaCl2 solution was added. The time of coagulation (in seconds) was measured.

[2] = system: Ristocetin-induced thrombocyte aggregation; test: Ristocetin-induced thrombocyte aggregation, donor human thrombocyte enriched plasm; type: cell-based; settings: ristocetin inductor; for MA (60 c), %: amplitude at 60 s
Description: as §1, §2, §3
(§4) The study of anticoagulant activity was done within 2 h after thrombocyte enriched plasm obtaining. The plasm was normalized to achieve thrombocyte concentration of 200-250×10^9/L by addition of thrombocyte-free plasm. The concentration of thrombocytes was measured on SOLAR AR 2110 analyzer.
(§5) Antiaggregant properties of N,N′-substituted piperazines were evaluated by their influence on thrombocyte aggregation in tests with ADP-, collagen- and ristocetin-induced aggregation. To dissolve N,N′-substituted piperazines and to dilute reagents Tris-HCl-buffer with pH=7.4 was used.
(§6) As the general characteristic of thrombocyte aggregation activity the maximum amplitude (MA) of aggregation was taken on. That is the peak value of transmittance coefficient of the sample after aggregation agent introduction expressed in % relative to the transmittance of thrombocyte-free plasm. The response was registered on ascending linear segment of aggregation curve for 16 s.
(§7) The measurements were done using 4-channel CHRONO-LOG 490-4D analyzer (CHRONO-LOG, USA). The temperature in the cell was 37° C., the spinning speed of magnetic stirrer was 1200 rpm.
(§8) In a cuvette 0.5 ml of N,N′-substituted piperazine solution was placed, then 0.4 ml of normalized thrombocyte plasm was added. The mixture was stirred and incubated at 37° C. for 5 min. The cuvette was placed in aggregometer, then 0.05 ml of aggregation inductor solution was added (ADP or collagen or ristocetin). Thrombocyte aggregation was measured for 3 min.
To study ristocetin-induced thrombocyte aggregation CHRONO-PAR RISTOCETIN reagent (CHRONO-LOG, USA) was diluted with buffer solution until ristocetin concentration reached 12 mg/ml. Thrombocyte aggregation amplitude was measured in 60 s after the beginning of the reaction.

[3] = system: mesentery arterioles; test: Vasodilator properties, microcirculatory vessel responsiveness to noradrenalin, arterioles; type: in vivo, Wistar male rats
Description: Vasodilator properties of N,N′-substituted piperazines were evaluated according to their influence on microcirculatory vessel responsiveness.
The studies were done on Wistar male rats with mass of 300±30 g (laboratory animals nursery “Rappolovo”, RAMS). The animals were kept with unlimited food (standard ration for laboratory rats K-120 by <<Inform-korm>>, Russia) and water allowance.
The solutions of N,N′-substituted piperazines and physiological (control) solution were introduced via bolus injection within 1 min into caudal vein of non-anaesthetized animals according to the dosage of 5.0 ml per 1 kg. Immediately after the introduction the animals were put in separate standard cages for observation.
In 30 min after the injection the animals were anaesthetized (thiopental sodium, 60 mg/kg intraperitoneally). The loop of small intestine adjoined to mesoappendix was retrieved through inferomedian incision. To study microcirculation in mesentery venules and arterioles in transmitted light the rat was placed on thermostated microscope objective table. The application of noradrenalin solution (Aguettant, 2 mg/ml, Laboratoire AGUETTANT, France) was done directly on the mesentery (Furness J. B., Marshall J. M., 1974; Yantareva L. I., 2004).
The study of microcirculatory vessels was done with LUMAM I1 microscope (LOMO, Russia). The recording of video data was done with the camera (Optics and Electronics ISTA Ltd) attached to a personal computer. The processing of data was done with Video-Test 4.0 software (ISTA Ltd., Russia). The diameter of the vessel wall (D, m) before and after the application of noradrenalin and the starting time of blood flow slowdown induced by noradrenalin were measured (the measurements were done for 1 min after the application).

[4] = system: ADP-induced thrombocyte aggregation; test: ADP-induced thrombocyte aggregation, donor human thrombocyte enriched plasm; type: cell-based; settings: ADP inductor; for MA, %: human thrombocyte plasm
Description: as §1, §2, §3, §4, §5, §6, §7, §8
ADP-induced reversible thrombocyte aggregation test utilized CHRONO-PAR ADP reagent (CHRONO-LOG, USA) with 10 mol concentration. Primary (reversible) thrombocyte aggregation was evaluated by the response on addition of ADP threshold dose (ADP concentration is 1 mol) to plasm.

[5] = system: Collagen-induced thrombocyte aggregation; test: Collagen-induced thrombocyte aggregation, donor human thrombocyte enriched plasm; type: cell-based; settings: collagen inductor; for MA, %: human thrombocyte plasm
Description: as §1, §2, §3, §4, §5, §6, §7, §8
In collagen-induced thrombocyte aggregation test CHRONO-PAR COLLAGEN reagent (CHRONO-LOG, USA) was diluted with buffer solution until collagen concentration reached 10 µg/ml.

[6] = 0.01 mmol/kg, noradrenalin 10^−6 g/ml
[7] = 0.025 mmol/kg, noradrenalin 10^−7 g/ml
[8] = Homo sapiens, 1.25 mmol/L, read-out: (MA0-MAx): MA0 * 100%
[9] = Homo sapiens, 5.0 mmol/L, read-out: (MA0-MAx): MA0 * 100%
[10] = Homo sapiens, 7.5 mmol/L, read-out: (MA0-MAx): MA0 * 100%

Question: Which results are given for `O=C(O)/C=C/c1ccc(Cn2ccnc2)cc1` [Ozagrel, reference compound]?
Answer: (APTTx-APTT0): APTT0 * 100% ([1]; 2.5 mmol/L): 7.2%; APTT ([1]; 2.5 mmol/L): 51.8 ± 1.7 s; (APTTx-APTT0): APTT0 * 100% ([1]; 4.1 mmol/L): 10.0%; APTT ([1]; 4.1 mmol/L): 53.1 ± 3.0 s; (APTTx-APTT0): APTT0 * 100% ([1]; 8.3 mmol/L): 19.9%; APTT ([1]; 8.3 mmol/L): 57.9 ± 2.5 s; (APTTx-APTT0): APTT0 * 100% ([1]; 12.5 mmol/L): 29.8%; APTT ([1]; 12.5 mmol/L): 62.7 ± 2.1 s; (MAx-MA0): MA0 * 100% (Ozagrel: (MA0-MAx): MA0 * 100%) ([2]; 1.25 mmol/L): 8.0%; MA (60 c), % ([2]; 1.25 mmol/L): 58.6 ± 9.1%; (MAx-MA0): MA0 * 100% (Ozagrel: (MA0-MAx): MA0 * 100%) ([2]; 2.5 mmol/L): 28.4%; MA (60 c), % ([2]; 2.5 mmol/L): 45.6 ± 9.5%; (MAx-MA0): MA0 * 100% (Ozagrel: (MA0-MAx): MA0 * 100%) ([2]; 5.0 mmol/L): 44.1%; MA (60 c), % ([2]; 5.0 mmol/L): 35.6 ± 8.5%; % of vessel constriction [3, 6]: 80%; Blood flow slowdown, Latent period of slowdown [3, 6]: 27 ± 6 s; % of vessel constriction [3, 7]: 27%; Blood flow slowdown, Latent period of slowdown, s [3, 7]: No slowdown; MA, % ([4]; 1.25 mmol/L): 12.9 ± 2.1%; MA, % ([4]; 2.50 mmol/L): 10.6 ± 2.5%; MA, % ([4]; 5.0 mmol/L): 9.6 ± 2.5%; MA, % ([4]; 7.5 mmol/L): 4.2 ± 1.2%; inhibition at 1250 µM [4, 8]: 2.3%; inhibition at 2500 µM ([4]; Homo sapiens, 2.50 mmol/L, read-out: (MA0-MAx): MA0 * 100%): 19.7%; inhibition at 5000 µM [4, 9]: 63.6%; inhibition at 7500 µM [4, 10]: 68.2%; MA, % ([5]; 0.5 mmol/L): 74.3 ± 7.9%; MA, % ([5]; 1.25 mmol/L): 64.1 ± 12.0%; MA, % ([5]; 2.5 mmol/L): 60.0 ± 2.5%; MA, % ([5]; 5.0 mmol/L): 54.0 ± 12.9%; MA, % ([5]; 7.5 mmol/L): 34.2 ± 11.2%; inhibition at 500 µM ([5]; Homo sapiens, 0.5 mmol/L, read-out: (MA0-MAx): MA0 * 100%): 3.1%; inhibition at 1250 µM [5, 8]: 16.4%; inhibition at 2500 µM ([5]; Homo sapiens, 2.5 mmol/L, read-out: (MA0-MAx): MA0 * 100%): 21.8%; inhibition at 5000 µM [5, 9]: 29.6%; inhibition at 7500 µM [5, 10]: 55.4%
